Measured values from ChEMBL document CHEMBL5137039, “Therapeutic potentials and structure-activity relationship of 1,3-benzodioxole N-carbamothioyl carboxamide derivatives as selective and potent antagonists of P2X4 and P2X7 receptors” (Eur J Med Chem, 2022).

Assays:
[1] = biological target: T1, P2X purinoceptor 4 (Homo sapiens, UniProt Q99571); test: Antagonist activity against human P2X4R stably transfected in human 1321N1 cells incubated for 30 mins by Fura-2 AM staining based calcium influx assay; type: cell-based
T1 sequence (Q99571 whole entry): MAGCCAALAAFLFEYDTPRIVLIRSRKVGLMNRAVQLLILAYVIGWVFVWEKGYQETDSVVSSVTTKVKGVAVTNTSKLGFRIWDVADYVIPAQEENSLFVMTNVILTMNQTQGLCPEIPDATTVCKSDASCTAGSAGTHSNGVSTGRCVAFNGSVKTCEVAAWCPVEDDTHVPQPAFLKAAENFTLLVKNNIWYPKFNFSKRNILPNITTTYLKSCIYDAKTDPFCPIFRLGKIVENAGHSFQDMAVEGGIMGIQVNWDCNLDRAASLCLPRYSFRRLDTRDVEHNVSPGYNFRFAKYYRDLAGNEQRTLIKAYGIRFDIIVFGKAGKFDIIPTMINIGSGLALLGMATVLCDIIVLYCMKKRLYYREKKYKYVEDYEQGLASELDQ

[2] = Cytotoxicity against human 1321N1 cells assessed as reduction in cell viability at 50 uM after 24 hrs by MTT assay relative to control; type: toxicity, cell-based; conditions: 1321n1, 24 h
[3] = tested on: HeLa; test: Cytotoxicity against human HeLa cells assessed as reduction in cell viability at 50 uM after 24 hrs by MTT assay relative to control; type: toxicity, cell-based
[4] = biological target: T2, P2X purinoceptor 2 (Homo sapiens, UniProt Q9UBL9); test: Antagonist activity against human P2X2R stably transfected in human 1321N1 cells incubated for 30 mins by Fura-2 AM staining based calcium influx assay; type: cell-based
T2 sequence (Q9UBL9 whole entry): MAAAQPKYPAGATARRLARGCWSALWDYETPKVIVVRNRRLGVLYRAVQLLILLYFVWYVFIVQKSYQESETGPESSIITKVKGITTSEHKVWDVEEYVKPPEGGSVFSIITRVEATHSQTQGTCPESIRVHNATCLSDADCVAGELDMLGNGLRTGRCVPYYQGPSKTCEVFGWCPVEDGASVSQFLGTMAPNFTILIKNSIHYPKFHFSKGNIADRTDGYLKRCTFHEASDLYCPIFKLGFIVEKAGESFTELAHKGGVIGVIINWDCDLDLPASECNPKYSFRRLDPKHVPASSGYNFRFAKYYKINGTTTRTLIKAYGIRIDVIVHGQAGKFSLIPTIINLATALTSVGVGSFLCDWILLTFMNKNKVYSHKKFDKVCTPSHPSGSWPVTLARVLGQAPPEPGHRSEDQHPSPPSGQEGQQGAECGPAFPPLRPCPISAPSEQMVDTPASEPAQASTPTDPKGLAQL

[5] = biological target: T3, P2X purinoceptor 5 (Homo sapiens, UniProt Q93086); test: Antagonist activity against human P2X5R stably transfected in human 1321N1 cells incubated for 30 mins by Fura-2 AM staining based calcium influx assay; type: cell-based
T3 sequence (Q93086 whole entry): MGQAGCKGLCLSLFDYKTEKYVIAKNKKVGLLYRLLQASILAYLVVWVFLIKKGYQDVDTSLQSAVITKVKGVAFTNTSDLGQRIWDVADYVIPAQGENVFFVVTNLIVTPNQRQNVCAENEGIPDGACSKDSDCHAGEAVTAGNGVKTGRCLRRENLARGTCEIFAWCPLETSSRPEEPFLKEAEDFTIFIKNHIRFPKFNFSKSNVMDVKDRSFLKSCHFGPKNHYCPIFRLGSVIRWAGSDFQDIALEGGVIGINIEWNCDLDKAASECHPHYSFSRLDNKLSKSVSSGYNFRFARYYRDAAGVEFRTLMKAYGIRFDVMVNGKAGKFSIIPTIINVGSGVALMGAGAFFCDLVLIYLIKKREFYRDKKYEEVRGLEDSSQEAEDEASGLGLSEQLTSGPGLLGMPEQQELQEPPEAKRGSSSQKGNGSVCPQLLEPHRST

[6] = tested on: HEK293; test: Cytotoxicity against HEK293 cells assessed as reduction in cell viability at 50 uM after 24 hrs by MTT assay relative to control; type: toxicity, cell-based; conditions: human, hek293, 24 h
[7] = biological target: T3, P2X purinoceptor 5; test: Antagonist activity against human P2X5R stably transfected in human 1321N1 cells at 50 uM incubated for 30 mins by Fura-2 AM staining based calcium influx assay relative to control; type: cell-based; parameters: scale not given: the % may be the effect or the level left
[8] = biological target: T4, P2X purinoceptor 2 (Homo sapiens) (UniProt Q9UBL9); test: Antagonist activity against human P2X2R stably transfected in human 1321N1 cells at 50 uM incubated for 30 mins by Fura-2 AM staining based calcium influx assay relative to control; type: cell-based; parameters: scale not given: the % may be the effect or the level left
T4 sequence (whole entry): T2 sequence (Q9UBL9 whole entry)

[9] = biological target: T5, P2X purinoceptor 4 (Homo sapiens) (UniProt Q99571); test: Antagonist activity against human P2X4R stably transfected in human 1321N1 cells at 50 uM incubated for 30 mins by Fura-2 AM staining based calcium influx assay relative to control; type: cell-based; parameters: scale not given: the % may be the effect or the level left
T5 sequence (whole entry): T1 sequence (Q99571 whole entry)

[10] = biological target: T6, P2X purinoceptor 7 (Homo sapiens) (UniProt Q99572); test: Antagonist activity against human P2X7R stably transfected in human 1321N1 cells at 50 uM incubated for 30 mins by Fura-2 AM staining based calcium influx assay relative to control; type: cell-based; parameters: scale not given: the % may be the effect or the level left
T6 sequence (whole entry): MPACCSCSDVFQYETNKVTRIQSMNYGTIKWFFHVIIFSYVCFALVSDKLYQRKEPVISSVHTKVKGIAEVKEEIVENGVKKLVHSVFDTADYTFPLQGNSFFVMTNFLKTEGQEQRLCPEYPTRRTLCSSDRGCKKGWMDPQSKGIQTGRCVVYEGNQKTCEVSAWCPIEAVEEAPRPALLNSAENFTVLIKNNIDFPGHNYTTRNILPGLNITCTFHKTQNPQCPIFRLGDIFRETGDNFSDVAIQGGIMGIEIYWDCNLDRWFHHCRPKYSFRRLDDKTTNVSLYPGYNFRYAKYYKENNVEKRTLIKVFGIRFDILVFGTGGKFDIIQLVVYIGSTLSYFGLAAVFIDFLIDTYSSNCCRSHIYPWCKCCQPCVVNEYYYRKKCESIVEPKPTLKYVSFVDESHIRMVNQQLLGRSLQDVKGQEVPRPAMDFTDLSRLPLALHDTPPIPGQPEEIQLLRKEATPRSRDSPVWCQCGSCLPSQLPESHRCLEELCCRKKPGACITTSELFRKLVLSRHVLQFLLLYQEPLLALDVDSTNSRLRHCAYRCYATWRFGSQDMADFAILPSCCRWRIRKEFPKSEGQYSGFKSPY

[11] = biological target: T6, P2X purinoceptor 7 (Homo sapiens); test: Antagonist activity against human P2X7R stably transfected in human 1321N1 cells assessed as BzATP Emax at 0.2 uM incubated for 30 mins by Fura-2 AM staining based calcium influx assay relative to control; type: cell-based
[12] = biological target: T6, P2X purinoceptor 7 (Homo sapiens); test: Antagonist activity against human P2X7R stably transfected in human 1321N1 cells assessed as BzATP Emax at 0.1 uM incubated for 30 mins by Fura-2 AM staining based calcium influx assay relative to control; type: cell-based; conditions: filed as antagonist
[13] = biological target: T7, P2X purinoceptor 7 (Homo sapiens, UniProt Q99572); test: Antagonist activity against human P2X7R stably transfected in human 1321N1 cells incubated for 30 mins by Fura-2 AM staining based calcium influx assay; type: cell-based
T7 sequence (Q99572 whole entry): T6 sequence (whole entry)

[14] = biological target: T6, P2X purinoceptor 7 (Homo sapiens); test: Antagonist activity against human P2X7R stably transfected in human 1321N1 cells assessed as BzATP Emax at 0.05 uM incubated for 30 mins by Fura-2 AM staining based calcium influx assay relative to control; type: cell-based; conditions: filed as antagonist
[15] = biological target: T7, P2X purinoceptor 7; test: Antagonist activity against human P2X7R stably transfected in human 1321N1 cells assessed as reduction in BzATP-induced activity incubated for 5 to 10 mins by EtBr staining based fluorescence assay; type: cell-based
[16] = biological target: T5, P2X purinoceptor 4 (Homo sapiens); test: Antagonist activity against human P2X4R stably transfected in human 1321N1 cells assessed as ATP Emax at 0.05 uM incubated for 30 mins by Fura-2 AM staining based calcium influx assay relative to control; type: cell-based; conditions: filed as antagonist
[17] = biological target: T5, P2X purinoceptor 4 (Homo sapiens); test: Antagonist activity against human P2X4R stably transfected in human 1321N1 cells assessed as ATP Emax at 0.1 uM incubated for 30 mins by Fura-2 AM staining based calcium influx assay relative to control; type: cell-based; conditions: filed as antagonist
[18] = biological target: T5, P2X purinoceptor 4 (Homo sapiens); test: Antagonist activity against human P2X4R stably transfected in human 1321N1 cells assessed as ATP Emax at 0.2 uM incubated for 30 mins by Fura-2 AM staining based calcium influx assay relative to control; type: cell-based; conditions: filed as antagonist

| SMILES | IC50 [1] | Activity [2] | Activity [3] | Activity [6] | Activity [7] | Activity [8] | IC50 [13] | other results |
| --- | --- | --- | --- | --- | --- | --- | --- | --- |
| O=C(NC(=S)Nc1ccccc1O)c1ccc2c(c1)OCO2 | 2160 nM |  |  |  |  |  |  |  |
| Cc1ccc(C(=O)Nc2ccc(S(=O)(=O)O)c3cc(S(=O)(=O)O)cc(S(=O)(=O)O)c23)cc1NC(=O)c1cccc(NC(=O)Nc2cccc(C(=O)Nc3cc(C(=O)Nc4ccc(S(=O)(=O)O)c5cc(S(=O)(=O)O)cc(S(=O)(=O)O)c45)ccc3C)c2)c1 [SURAMIN] | 4730 nM | 11.56% | 11.46% | 49.01% |  |  |  | IC50 [4]: 14000 nM; IC50 [5]: 15800 nM |
| COc1ccc(NC(=S)NC(=O)c2ccc3c(c2)OCO3)cc1 |  | 3.32% | 1.38% | 7.44% | 12% | 22% |  | Activity ([9]; filed as antagonist): 44%; Activity [10]: 36% |
| COc1ccccc1NC(=S)NC(=O)c1ccc2c(c1)OCO2 | 3670 nM | 5.41% | 1.7% | 4.6% | 26% | 39% |  | Activity [10]: 38% |
| O=C(NC(=S)Nc1cccc2cccnc12)c1ccc2c(c1)OCO2 | 908 nM | 3.04% | 5.45% | 1.42% | 29% |  | 18 nM | Emax [11]: 29%; Activity ([8]; filed as antagonist): 41%; Emax [12]: 68%; Emax [14]: 83%; IC50 [15]: 30 nM |
| O=C(O)c1ccc2c(c1)OCO2 |  |  |  |  | 10% | 21% |  | Activity [9]: 29% |
| O=C(NC(=S)Nc1ccc(Br)cc1)c1ccc2c(c1)OCO2 | 14300 nM | 3.72% | 7.64% | 2.64% | 38% | 35% |  | Activity [9]: 31%; Activity [10]: 22% |
| NS(=O)(=O)c1cccc(NC(=S)NC(=O)c2ccc3c(c2)OCO3)c1 | 2170 nM | 6.41% | 2.52% | 4.19% | 23% | 17% | 110 nM | IC50 [15]: 173 nM |
| O=C(NC(=S)Nc1cc(Br)cc(C(F)(F)F)c1)c1ccc2c(c1)OCO2 | 18200 nM | 3.34% | 5.59% | 4.48% | 17% | 22% | 1250 nM |  |
| O=C(NC(=S)Nc1ccc(O)cc1)c1ccc2c(c1)OCO2 | 1450 nM |  |  |  |  |  | 902 nM | IC50 [5]: 27600 nM; IC50 [15]: 1110 nM |
| NS(=O)(=O)c1ccc(CCNC(=S)NC(=O)c2ccc3c(c2)OCO3)cc1 | 1050 nM | 5.81% | 4.26% | 5.77% | 32% | 33% | 45 nM | IC50 [15]: 47 nM |
| O=C(NC(=S)Nc1cccnc1Cl)c1ccc2c(c1)OCO2 | 935 nM | 2.82% | 1.94% | 6.15% |  |  | 34 nM | IC50 [4]: 35900 nM; IC50 [15]: 34 nM |
| O=C(NC(=S)Nc1cc(Cl)c(O)c(Cl)c1)c1ccc2c(c1)OCO2 | 7640 nM |  |  |  |  |  | 1640 nM |  |
| COc1cccc(NC(=S)NC(=O)c2ccc3c(c2)OCO3)c1 |  | 4.15% | 4.18% | 1.95% | 25% | 22% |  | Activity [9]: 19%; Activity [10]: 33% |
| O=C(NC(=S)Nc1c(Br)ccc(C(F)(F)F)c1Br)c1ccc2c(c1)OCO2 | 55 nM | 7.19% | 5.35% | 7.24% |  | 38% | 3560 nM | Emax [16]: 90%; Emax [17]: 68%; Emax [18]: 40% |
| O=C(NC(=S)Nc1ccc([N+](=O)[O-])cc1)c1ccc2c(c1)OCO2 | 3760 nM |  |  |  |  |  | 1890 nM | IC50 [5]: 1650 nM |
| Cc1cc(Br)ccc1NC(=S)NC(=O)c1ccc2c(c1)OCO2 | 14300 nM | 7.09% | 1.64% | 3.38% | 25% | 18% |  | Activity [10]: 34% |
| Cc1nc(/N=N/c2ccc(S(=O)(=O)O)cc2S(=O)(=O)O)c(COP(=O)(O)O)c(C=O)c1O |  | 12.41% | 20.43% | 46.58% |  |  |  |  |
| CC(C)c1ccc(NC(=S)NC(=O)c2ccc3c(c2)OCO3)c(Br)c1 | 39 nM | 3.83% | 4.53% | 3.73% | 27% | 35% | 13100 nM |  |
| CC(C)c1cc(Br)c(NC(=O)Nc2cccnc2)c(Br)c1 |  | 16.7% | 14.81% | 25.19% |  |  |  | Activity ([10]; filed as antagonist): 45% |
